These results are taken from BindingDB's records for doi:10.1016/j.bmc.2004.10.042 (Uppsala University, 2005).

For orientation: Ki means a measure of affinity in units of concentration, obtained from inhibition or displacement. A higher Ki goes with lower affinity.

This assay deals with T1, Dimer of Gag-Pol polyprotein [489-587] (Human immunodeficiency virus 1, UniProt P12497).
T1 construct: 489-587
Kind of assay: Enzyme Inhibition Assay. Conditions: pH 5; 30 °C. The procedure: The effects of the inhibitors on the activity of HIV-1 proteinase was determined by a fluorometric assay with an internally quenched fluorescent peptide substrate. Measurements were performed in 96-well plates with a Fluoroskan plate reader. Excitation and emission wavelengths were 355 and 500 nm, respectively.Data were analyzed by nonlinear regression by using SIMFIT, and an equation for tightly binding inhibitors.
Molecule `Cc1ccc(-c2ccccc2CN2C[C@H](O)[C@@H](O)CN(Cc3ccccc3-c3ccc(C)cc3)S2(=O)=O)cc1` [(4S,5S)-4,5-dihydroxy-2,7-bis({[2-(4-methylphenyl)phenyl]methyl})-1,2,7-thiadiazepane-1,1-dione] had a Ki of 1500 nM.
Next, `Cc1cccc(-c2ccccc2CN2C[C@H](O)[C@@H](O)CN(Cc3ccccc3-c3cccc(C)c3)S2(=O)=O)c1` [(4S,5S)-4,5-dihydroxy-2,7-bis({[2-(3-methylphenyl)phenyl]methyl})-1,2,7-thiadiazepane-1,1-dione]: 2700 nM; `O=S1(=O)N(Cc2ccccc2CCc2ccccc2)C[C@H](O)[C@@H](O)CN1Cc1ccccc1CCc1ccccc1` [(4S,5S)-4,5-dihydroxy-2,7-bis({[2-(2-phenylethyl)phenyl]methyl})-1,2,7-thiadiazepane-1,1-dione]: 3000 nM.
The same measure for `CCCCc1ccc(-c2ccccc2CN2C[C@H](O)[C@@H](O)CN(Cc3ccccc3-c3ccc(CCCC)cc3)S2(=O)=O)cc1` [(4S,5S)-2,7-bis({[2-(4-butylphenyl)phenyl]methyl})-4,5-dihydroxy-1,2,7-thiadiazepane-1,1-dione]: 1900 nM; for `O=S1(=O)N(Cc2ccccc2-c2cccc(C(F)(F)F)c2)C[C@H](O)[C@@H](O)CN1Cc1ccccc1-c1cccc(C(F)(F)F)c1` [(4S,5S)-4,5-dihydroxy-2,7-bis({2-[3-(trifluoromethyl)phenyl]phenyl}methyl)-1,2,7-thiadiazepane-1,1-dione]: 2400 nM; for `CCS(=O)(=O)c1ccc(-c2ccccc2CN2C[C@H](O)[C@@H](O)CN(Cc3ccccc3-c3ccc(S(=O)(=O)CC)cc3)S2(=O)=O)cc1` [(4S,5S)-2,7-bis({2-[4-(ethanesulfonyl)phenyl]phenyl}methyl)-4,5-dihydroxy-1,2,7-thiadiazepane-1,1-dione]: 5200 nM.
Next, `CC(=O)c1ccc(-c2ccccc2CN2C[C@H](O)[C@@H](O)CN(Cc3ccccc3-c3ccc(C(C)=O)cc3)S2(=O)=O)cc1` [(4S,5S)-2,7-bis({[2-(4-acetylphenyl)phenyl]methyl})-4,5-dihydroxy-1,2,7-thiadiazepane-1,1-dione]: 5300 nM; `O=S1(=O)N(Cc2ccccc2-c2ccccc2)C[C@H](O)[C@@H](O)CN1Cc1ccccc1-c1ccccc1` [(4S,5S)-4,5-dihydroxy-2,7-bis[(2-phenylphenyl)methyl]-1,2,7-thiadiazepane-1,1-dione]: 2500 nM.
Molecule `CSc1ccccc1-c1ccccc1CN1C[C@H](O)[C@@H](O)CN(Cc2ccccc2-c2ccccc2SC)S1(=O)=O` [(4S,5S)-4,5-dihydroxy-2,7-bis({2-[2-(methylsulfanyl)phenyl]phenyl}methyl)-1,2,7-thiadiazepane-1,1-dione] showed a Ki of 1100 nM.
The same measure for `O=[N+]([O-])c1cccc(-c2ccccc2CN2C[C@H](O)[C@@H](O)CN(Cc3ccccc3-c3cccc([N+](=O)[O-])c3)S2(=O)=O)c1` [(4S,5S)-4,5-dihydroxy-2,7-bis({[2-(3-nitrophenyl)phenyl]methyl})-1,2,7-thiadiazepane-1,1-dione]: 7400 nM.
Take `O=S1(=O)N(Cc2ccccc2-c2cc3ccccc3o2)C[C@H](O)[C@@H](O)CN1Cc1ccccc1-c1cc2ccccc2o1` [(4S,5S)-2,7-bis({[2-(1-benzofuran-2-yl)phenyl]methyl})-4,5-dihydroxy-1,2,7-thiadiazepane-1,1-dione]: the affinity corresponds to a Ki of 530 nM.
Next, `O=S1(=O)N(Cc2ccccc2-c2ccc(F)cc2)C[C@H](O)[C@@H](O)CN1Cc1ccccc1-c1ccc(F)cc1` [(4S,5S)-2,7-bis({[2-(4-fluorophenyl)phenyl]methyl})-4,5-dihydroxy-1,2,7-thiadiazepane-1,1-dione]: 5300 nM; `O=S1(=O)N(Cc2ccccc2Cc2ccccc2)C[C@H](O)[C@@H](O)CN1Cc1ccccc1Cc1ccccc1` [(4S,5S)-2,7-bis[(2-benzylphenyl)methyl]-4,5-dihydroxy-1,2,7-thiadiazepane-1,1-dione]: 2500 nM; `COc1ccc(-c2ccccc2CN2C[C@H](O)[C@@H](O)CN(Cc3ccccc3-c3ccc(OC)cc3)S2(=O)=O)cc1` [(4S,5S)-4,5-dihydroxy-2,7-bis({[2-(4-methoxyphenyl)phenyl]methyl})-1,2,7-thiadiazepane-1,1-dione]: 9700 nM.
Next, `O=S1(=O)N(Cc2ccccc2)C[C@H](O)[C@@H](O)CN1Cc1ccccc1` [(4S,5S)-2,7-dibenzyl-4,5-dihydroxy-1,2,7-thiadiazepane-1,1-dione]: greater than 20000 nM; `O=S1(=O)N(Cc2ccccc2-c2ccsc2)C[C@H](O)[C@@H](O)CN1Cc1ccccc1-c1ccsc1` [(4S,5S)-4,5-dihydroxy-2,7-bis({[2-(thiophen-3-yl)phenyl]methyl})-1,2,7-thiadiazepane-1,1-dione]: 2700 nM.
In turn, `COc1ccccc1-c1ccccc1CN1C[C@H](O)[C@@H](O)CN(Cc2ccccc2-c2ccccc2OC)S1(=O)=O` [(4S,5S)-4,5-dihydroxy-2,7-bis({[2-(2-methoxyphenyl)phenyl]methyl})-1,2,7-thiadiazepane-1,1-dione] gave a Ki of 5100 nM.
Turning to `O=S1(=O)N(Cc2ccccc2/C=C/c2ccccc2)C[C@H](O)[C@@H](O)CN1Cc1ccccc1/C=C/c1ccccc1` [(4S,5S)-4,5-dihydroxy-2,7-bis({2-[(E)-2-phenylethenyl]phenyl}methyl)-1,2,7-thiadiazepane-1,1-dione], the Ki came out at 2000 nM.
The same measure for `CC(C)c1cccc(-c2ccccc2CN2C[C@H](O)[C@@H](O)CN(Cc3ccccc3-c3cccc(C(C)C)c3)S2(=O)=O)c1` [(4S,5S)-4,5-dihydroxy-2,7-bis({2-[3-(propan-2-yl)phenyl]phenyl}methyl)-1,2,7-thiadiazepane-1,1-dione]: 3200 nM; for `COc1ccc(-c2ccccc2CN2C[C@H](O)[C@@H](O)CN(Cc3ccccc3-c3ccc(OC)c(OC)c3)S2(=O)=O)cc1OC` [(4S,5S)-2,7-bis({[2-(3,4-dimethoxyphenyl)phenyl]methyl})-4,5-dihydroxy-1,2,7-thiadiazepane-1,1-dione]: 9400 nM.
